Source: ChEMBL document CHEMBL3832024, “DailyMed|setid=d9db2fd3-a668-4d37-9082-18f6ceb8c3cb | CLARITHROMYCIN - clarithromycin tablet, film coated, extended release|Dispensing Solutions, Inc”
Several values for one entry are separate records, joined by “and”; a condition that tells them apart may be missing. Equal entries are not always repeated.

Assays:
Type in all cases: ADME, organism-based
Homo sapiens [1] = experiment: Evaluation of pharmacokinetic parameters for 14 OH-Clarithromycin following multiple oral doses of Clarithromycin tablets.; set-up: dose 250 mg, dose 500 mg, dose 1000 mg, route oral; details: in vivo, dosed compound id 21, dosed compound name CLARITHROMYCIN, tissue Plasma
[2] = (§1) Tmax for Clarithromycin evaluated after a single oral dose of 500 mg Clarithromycin tablets to fed and fasted subjects; details: human, in vivo, dietary status Fed, dosed compound id 21, dosed compound name CLARITHROMYCIN, regimen Single dose, tissue Plasma
Homo sapiens [3] = experiment: as §1; details: in vivo, po, dietary status Fasting, dosed compound id 21, dosed compound name CLARITHROMYCIN, regimen Single dose, tissue Plasma
[4] = (§2) Evaluation of pharmacokinetic parameters for Clarithromycin following multiple oral doses of Clarithromycin tablets.; set-up: dose 250 mg, dose 500 mg, dose 1000 mg, route oral; details: human, in vivo, dosed compound id 21, dosed compound name CLARITHROMYCIN, route oral
Homo sapiens [5] = experiment: as §2; set-up: dose 250 mg, dose 500 mg, dose 1000 mg, route oral; details: in vivo, po, dosed compound id 21, dosed compound name CLARITHROMYCIN, regimen Every 12h; for Excretion: tissue Urine

t1/2 (Homo sapiens [1]; dose 250 mg, regimen Every 12h, route oral)	Tmax (Homo sapiens [1]; dose 500 mg, gender male and female, regimen Every 24h, route oral)	t1/2 (Homo sapiens [1]; dose 500 mg, regimen Every 12h, route oral)	Cmax ss (Homo sapiens [1]; gender male and female, regimen Every 24h)	Cmax ss (Homo sapiens [1]; regimen Every 12h)	Tmax [2]	Tmax (Homo sapiens [3])	dose excreted ([4]; po, at 250 mg, regimen Every 12h, tissue Urine, read-out: Excretion)	Tmax ([4]; dose 500 mg, gender male and female, regimen Every 24h, tissue Plasma)	half-life ([4]; dose 500 mg, regimen Every 12h, tissue Plasma)	Excretion (Homo sapiens [5]; at 250 mg)	Excretion (Homo sapiens [5]; at 500 mg)	t1/2 (Homo sapiens [5]; dose 250 mg, tissue Plasma)	Cmax ss (Homo sapiens [5]; gender male and female, tissue Plasma)	Cmax ss (Homo sapiens [5]; sampling time1 3 days, tissue Plasma)	SMILES
5 to 6 h	6 h	7 to 9 h	800 ng/mL	600 ng/mL and 1000 ng/mL	–	–	–	–	–	–	–	–	–	–	CO[C@]1(C)C[C@@H](C)C(=O)[C@H](C)[C@@H](O)[C@](C)(O)[C@@H](C(C)O)OC(=O)[C@H](C)[C@@H](O[C@H]2C[C@@](C)(OC)[C@@H](O)[C@H](C)O2)[C@H](C)[C@H]1O[C@@H]1O[C@H](C)C[C@H](N(C)C)[C@H]1O (stereo not given in full)
–	–	–	–	–	2.5 h	2 h	40%	5 to 6 h	5 to 7 h	20%	30%	3 to 4 h	2000 to 4000 ng/mL and 5000 to 10000 ng/mL	1000 to 2000 ng/mL and 3000 to 4000 ng/mL	CC[C@H]1OC(=O)[C@H](C)[C@@H](O[C@H]2C[C@@](C)(OC)[C@@H](O)[C@H](C)O2)[C@H](C)[C@@H](O[C@@H]2O[C@H](C)C[C@H](N(C)C)[C@H]2O)[C@](C)(OC)C[C@@H](C)C(=O)[C@H](C)[C@@H](O)[C@]1(C)O [CLARITHROMYCIN]
